Assay results: patent US7449553B2, “Antibody that binds ceramidase” (Takara Bio Inc., priority 1999, dated 2008)

Molecular target: T1, neutral/alkaline ceramidase derived from a mouse liver (Mus musculus, UniProt Q9JHE3)
T1 construct: the ceramidase purified from the mouse liver lacked the peptide of the N-terminal portion of the polypeptides encoded by the above-mentioned ORF; from tissue; host or cells: mouse liver (membrane fraction, purified by chromatography)
Assay: Substrate specificity of the ceramidase (degradation of 14C-labeled sphingolipids, TLC)
Type: biochemical
Details: for Degradation Ratio (%): 5 milliunits ceramidase on 100 pmol 14C-labeled sphingolipid, 25 mM Tris-HCl pH 7.5, 1% sodium cholate, 37° C., 24 hours; for Substrate specificity (in words): as shown in Table 1
Procedure: Five milliunits of the ceramidase of the present invention is acted on 100 pmol of various kinds of sphingolipids, in which the fatty acid moiety is labeled with ^14C-radioactive isotope, in […] of 25 mM Tris-hydrochloric acid buffer, pH 7.5, containing 1% sodium cholate at 37° C. for 24 hours. The reaction mixture is developed on silica gel thin layer chromatography. Thereafter, the ^14C-labeled sphingolipids and the ^14C-labeled fatty acids generated by the enzymatic reaction are detected and quantified by Imaging Analyzer BAS1000 (manufactured by Fuji Photo Film). The degradation ratio is calculated from the obtained values.

T1 sequence (Q9JHE3 75-756): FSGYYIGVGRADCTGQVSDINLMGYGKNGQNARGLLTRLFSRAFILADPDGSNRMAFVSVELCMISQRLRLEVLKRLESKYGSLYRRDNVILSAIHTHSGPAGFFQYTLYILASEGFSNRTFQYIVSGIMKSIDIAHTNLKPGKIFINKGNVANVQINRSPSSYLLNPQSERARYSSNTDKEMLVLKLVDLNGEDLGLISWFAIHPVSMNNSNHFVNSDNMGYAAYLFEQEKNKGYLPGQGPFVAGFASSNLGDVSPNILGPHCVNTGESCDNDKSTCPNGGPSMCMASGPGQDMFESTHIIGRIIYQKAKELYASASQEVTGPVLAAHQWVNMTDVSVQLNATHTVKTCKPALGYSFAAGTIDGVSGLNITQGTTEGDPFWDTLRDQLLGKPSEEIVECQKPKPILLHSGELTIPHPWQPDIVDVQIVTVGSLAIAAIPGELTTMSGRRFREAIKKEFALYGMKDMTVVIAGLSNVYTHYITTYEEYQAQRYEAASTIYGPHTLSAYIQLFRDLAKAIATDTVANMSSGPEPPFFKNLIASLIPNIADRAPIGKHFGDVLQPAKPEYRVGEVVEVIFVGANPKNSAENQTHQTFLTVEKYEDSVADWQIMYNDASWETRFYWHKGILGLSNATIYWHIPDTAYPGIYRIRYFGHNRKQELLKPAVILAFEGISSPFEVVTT

Row | Compound | Degradation Ratio (%) | Substrate specificity (in words)
1 | CCCCCCCCCCCCC/C=C/[C@@H](O)[C@H](CO)NC(=O)CCCCCCCCCCC [N-Lauroylsphingosine] | 63 | –
2 | CCCCCCCCCCCCC/C=C/[C@@H](O)[C@H](CO)NC(=O)CCCCCCCCCCCCCCC [N-Palmitoylsphingosine] | 93 | –
3 | CCCCCCCCCCCCC/C=C/[C@@H](O)[C@H](CO)NC(=O)CCCCCCCCCCCNc1ccc([N+](=O)[O-])c2nonc12 [12-((N-(7-nitrobenz-2-oxa-1,3-diazol-4-yl)amino)dodecanoyl)sphingosine] | 97 | –
4 | Galb1-3GalNAcb1-4(NeuAca2-3)Galb1-4G1cb1-1′Cer [GM1a] | 0 | not acting
5 | CCCCCCCCCCCCC/C=C/[C@@H](O)[C@H](CO)NC(=O)CCCCCCCCCCCCCCCCC [N-Stearoylsphingosine] | 83 | –
6 | CCCCCCCCCCCCCCCC(=O)N[C@@H](CO)[C@H](O)[C@H](O)CCCCCCCCCCCCCC [N-Palmitoylphytosphingosine] | 5 | –
7 | CCCCCCCCCCCCCCCC(=O)N[C@@H](CO)[C@H](O)CCCCCCCCCCCCCCC [N-Palmitoylsphinganine] | 59 | –
8 | CCCCCCCCCCCCCCCCCC(=O)N[C@@H](CO)[C@H](O)CCCCCCCCCCCCCCC [N-Stearoylsphinganine] | 40 | –
9 | CCCCCCCCCCCCCCCCCC(=O)N[C@@H](CO)[C@H](O)[C@H](O)CCCCCCCCCCCCCC [N-Stearoylphytosphingosine] | 2 | –
10 | Sphingomyelin | 0 | not acting
11 | CCCCCCCCCCCCC/C=C/[C@@H](O)[C@H](CO)NC(=O)CCCCCNc1ccc([N+](=O)[O-])c2nonc12 [6-((N-(7-nitrobenz-2-oxa-1,3-diazole-4-yl)amino)hexanoyl)sphingosine] | 2 | –
12 | Galactosylceramide | 0 | not acting
13 | Sulfatide | 0 | not acting
